Results taken from PubChem BioAssay AID1963958 (Molecular Pharmacology Branch, DTP, NCI, 2024).

Test system: MDA-MB-231 multicell spheroids, viability
Experiment: Anticancer human tumor MDA-MB-231 cell line growth inhibition [PI3K];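 note: spheroids exposed to agents for seven days before reading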;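 for viability, T/C: percent of vehicle control luminescence with DMSO treated spheroids as 100%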
Settings: for IC50: curve of first compound; for viability, T/C: stronger effect = lower value
How it was run: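 Viability of mixed-cell spheroids was determined after exposure to pairwise combinations, one partner being inavolisib, alpelisib, duvelisib or copanlisib. Highest tested concentration matched clinical Cmax where known and 10 microM where not, descending in half-log steps.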

[1] = second compound 0.00316 µM, first compound 0.0316 µM
[2] = second compound 0.00316 µM, first compound 0.1 µM
[3] = second compound 0.00316 µM, first compound 0.316 µM
[4] = second compound 0.00316 µM, first compound 1 µM
[5] = second compound 0.00316 µM, first compound 3.16 µM
[6] = second compound 0.00316 µM, first compound 10 µM
[7] = second compound 0.01 µM, first compound 0.0316 µM
[8] = second compound 0.01 µM, first compound 0.1 µM
[9] = second compound 0.01 µM, first compound 0.316 µM
[10] = second compound 0.01 µM, first compound 1 µM
[11] = second compound 0.01 µM, first compound 3.16 µM
[12] = second compound 0.01 µM, first compound 10 µM
[13] = second compound 0.0316 µM, first compound 0.0316 µM
[14] = second compound 0.0316 µM, first compound 0.1 µM
[15] = second compound 0.0316 µM, first compound 0.316 µM
[16] = second compound 0.0316 µM, first compound 1 µM
[17] = second compound 0.0316 µM, first compound 3.16 µM
[18] = second compound 0.0316 µM, first compound 10 µM
[19] = second compound 0.1 µM, first compound 0.0316 µM
[20] = second compound 0.1 µM, first compound 0.1 µM
[21] = second compound 0.1 µM, first compound 0.316 µM
[22] = second compound 0.1 µM, first compound 1 µM
[23] = second compound 0.1 µM, first compound 3.16 µM
[24] = second compound 0.1 µM, first compound 10 µM
[25] = second compound 0.316 µM, first compound 0.0316 µM
[26] = second compound 0.316 µM, first compound 0.1 µM
[27] = second compound 0.316 µM, first compound 0.316 µM
[28] = second compound 0.316 µM, first compound 1 µM
[29] = second compound 0.316 µM, first compound 3.16 µM
[30] = second compound 0.316 µM, first compound 10 µM
[31] = second compound 1 µM, first compound 0.0316 µM
[32] = second compound 1 µM, first compound 0.1 µM
[33] = second compound 1 µM, first compound 0.316 µM
[34] = second compound 1 µM, first compound 1 µM
[35] = second compound 1 µM, first compound 3.16 µM
[36] = second compound 1 µM, first compound 10 µM

## C=CC(=O)N1CCN(c2nc(=O)n(-c3c(C)ccnc3C(C)C)c3nc(-c4c(O)cccc4F)c(F)cc23)C(C)C1 (stereo not drawn) + CC(Nc1ccc2c(c1)OCCn1cc(N3C(=O)OCC3C(F)F)nc1-2)C(N)=O
Second compound 0.00316 µM
  IC50: > 10 µM
Second compound 0.01 µM
  IC50: > 10 µM
Second compound 0.0316 µM
  IC50: > 10 µM
Second compound 0.1 µM
  IC50: > 10 µM
Second compound 0.316 µM
  IC50: > 10 µM
Second compound 1 µM
  IC50: 8.26 µM
[1]
  viability, T/C: 97.8%
[2]
  viability, T/C: 113%
[3]
  viability, T/C: 117%
[4]
  viability, T/C: 124%
[5]
  viability, T/C: 126%
[6]
  viability, T/C: 111%
[7]
  viability, T/C: 97.5%
[8]
  viability, T/C: 99.1%
[9]
  viability, T/C: 99.3%
[10]
  viability, T/C: 119%
[11]
  viability, T/C: 122%
[12]
  viability, T/C: 106%
[13]
  viability, T/C: 80.3%
[14]
  viability, T/C: 86.1%
[15]
  viability, T/C: 88.3%
[16]
  viability, T/C: 97.8%
[17]
  viability, T/C: 99.2%
[18]
  viability, T/C: 82.1%
[19]
  viability, T/C: 69.8%
[20]
  viability, T/C: 71.2%
[21]
  viability, T/C: 81.6%
[22]
  viability, T/C: 73%
[23]
  viability, T/C: 68.5%
[24]
  viability, T/C: 59.3%
[25]
  viability, T/C: 68.7%
[26]
  viability, T/C: 64.6%
[27]
  viability, T/C: 67.8%
[28]
  viability, T/C: 68.8%
[29]
  viability, T/C: 62.1%
[30]
  viability, T/C: 48%
[31]
  viability, T/C: 59.2%
[32]
  viability, T/C: 57.7%
[33]
  viability, T/C: 62.1%
[34]
  viability, T/C: 60.6%
[35]
  viability, T/C: 58.1%
[36]
  viability, T/C: 40.3%

## CC(Cn1ccc(-c2ccc(C#N)c(Cl)c2)n1)NC(=O)c1cc(C(C)O)[nH]n1 (stereo not drawn) + CC(Nc1ccc2c(c1)OCCn1cc(N3C(=O)OCC3C(F)F)nc1-2)C(N)=O
Second compound 0.00316 µM
  IC50: > 10 µM
Second compound 0.01 µM
  IC50: > 10 µM
Second compound 0.0316 µM
  IC50: > 10 µM
Second compound 0.1 µM
  IC50: > 10 µM
Second compound 0.316 µM
  IC50: > 10 µM
Second compound 1 µM
  IC50: > 10 µM
[1]
  viability, T/C: 102%
[2]
  viability, T/C: 95.6%
[3]
  viability, T/C: 104%
[4]
  viability, T/C: 95%
[5]
  viability, T/C: 96.5%
[6]
  viability, T/C: 88.1%
[7]
  viability, T/C: 96%
[8]
  viability, T/C: 97.5%
[9]
  viability, T/C: 91.8%
[10]
  viability, T/C: 94.6%
[11]
  viability, T/C: 84.4%
[12]
  viability, T/C: 77%
[13]
  viability, T/C: 83.2%
[14]
  viability, T/C: 81.7%
[15]
  viability, T/C: 82.4%
[16]
  viability, T/C: 77%
[17]
  viability, T/C: 74.3%
[18]
  viability, T/C: 64%
[19]
  viability, T/C: 80.1%
[20]
  viability, T/C: 69.6%
[21]
  viability, T/C: 72%
[22]
  viability, T/C: 69.9%
[23]
  viability, T/C: 64.8%
[24]
  viability, T/C: 50.3%
[25]
  viability, T/C: 63.5%
[26]
  viability, T/C: 63.3%
[27]
  viability, T/C: 65.1%
[28]
  viability, T/C: 61.2%
[29]
  viability, T/C: 60.8%
[30]
  viability, T/C: 53.6%
[31]
  viability, T/C: 66%
[32]
  viability, T/C: 56.3%
[33]
  viability, T/C: 64.5%
[34]
  viability, T/C: 60.2%
[35]
  viability, T/C: 56.1%
[36]
  viability, T/C: 48.8%

## Cn1ncc(Cl)c1-c1cc(C(=O)NC(CN)Cc2cccc(F)c2)sc1Cl (stereo not drawn) + CC(Nc1ccc2c(c1)OCCn1cc(N3C(=O)OCC3C(F)F)nc1-2)C(N)=O
Second compound 0.00316 µM
  IC50: 2.72 µM
Second compound 0.01 µM
  IC50: 2.61 µM
Second compound 0.0316 µM
  IC50: 1.54 µM
Second compound 0.1 µM
  IC50: 1.26 µM
Second compound 0.316 µM
  IC50: 1.18 µM
Second compound 1 µM
  IC50: 0.665 µM
[1]
  viability, T/C: 95.7%
[2]
  viability, T/C: 94.2%
[3]
  viability, T/C: 91.2%
[4]
  viability, T/C: 73.4%
[5]
  viability, T/C: 46.9%
[6]
  viability, T/C: 25.3%
[7]
  viability, T/C: 91.5%
[8]
  viability, T/C: 95.2%
[9]
  viability, T/C: 80.7%
[10]
  viability, T/C: 70.5%
[11]
  viability, T/C: 45.9%
[12]
  viability, T/C: 22.8%
[13]
  viability, T/C: 76.4%
[14]
  viability, T/C: 75.2%
[15]
  viability, T/C: 70.1%
[16]
  viability, T/C: 58.3%
[17]
  viability, T/C: 36.6%
[18]
  viability, T/C: 24.1%
[19]
  viability, T/C: 71.4%
[20]
  viability, T/C: 68.8%
[21]
  viability, T/C: 62.9%
[22]
  viability, T/C: 55.6%
[23]
  viability, T/C: 34.5%
[24]
  viability, T/C: 22%
[25]
  viability, T/C: 66.4%
[26]
  viability, T/C: 59.7%
[27]
  viability, T/C: 59.7%
[28]
  viability, T/C: 53.4%
[29]
  viability, T/C: 36.8%
[30]
  viability, T/C: 21%
[31]
  viability, T/C: 58.9%
[32]
  viability, T/C: 56.9%
[33]
  viability, T/C: 55.1%
[34]
  viability, T/C: 46.8%
[35]
  viability, T/C: 36.9%
[36]
  viability, T/C: 18.9%

## Cn1nccc1Nc1nccc(-c2ccn(C(CO)c3ccc(Cl)c(F)c3)c(=O)c2)n1 (stereo not drawn) + CC(Nc1ccc2c(c1)OCCn1cc(N3C(=O)OCC3C(F)F)nc1-2)C(N)=O
Second compound 0.00316 µM
  IC50: 1.08 µM
Second compound 0.01 µM
  IC50: 0.618 µM
Second compound 0.0316 µM
  IC50: 0.27 µM
Second compound 0.1 µM
  IC50: 0.0888 µM
Second compound 0.316 µM
  IC50: 0.0669 µM
Second compound 1 µM
  IC50: < 0.0316 µM
[1]
  viability, T/C: 64.6%
[2]
  viability, T/C: 68.1%
[3]
  viability, T/C: 56.8%
[4]
  viability, T/C: 50.9%
[5]
  viability, T/C: 39.6%
[6]
  viability, T/C: 26.9%
[7]
  viability, T/C: 71.6%
[8]
  viability, T/C: 64.4%
[9]
  viability, T/C: 52%
[10]
  viability, T/C: 46.9%
[11]
  viability, T/C: 39.6%
[12]
  viability, T/C: 23%
[13]
  viability, T/C: 69.2%
[14]
  viability, T/C: 56.4%
[15]
  viability, T/C: 47.3%
[16]
  viability, T/C: 42.2%
[17]
  viability, T/C: 29.4%
[18]
  viability, T/C: 20.4%
[19]
  viability, T/C: 56.4%
[20]
  viability, T/C: 46.6%
[21]
  viability, T/C: 43%
[22]
  viability, T/C: 40.2%
[23]
  viability, T/C: 25.5%
[24]
  viability, T/C: 20.8%
[25]
  viability, T/C: 53.4%
[26]
  viability, T/C: 48.5%
[27]
  viability, T/C: 42.1%
[28]
  viability, T/C: 33.4%
[29]
  viability, T/C: 26.3%
[30]
  viability, T/C: 19%
[31]
  viability, T/C: 51.2%
[32]
  viability, T/C: 42.3%
[33]
  viability, T/C: 38.5%
[34]
  viability, T/C: 36.1%
[35]
  viability, T/C: 26.6%
[36]
  viability, T/C: 16.2%
